This experiment concerns the target mouse BK channel (mSlo) (Mus musculus, UniProt Q08460). The experiment is classed as cell-based.

pKd: −log10 of the molar value.

The values that follow come from paper PMC2151567 (The Journal of General Physiology, 2006).

A word on the pKd: it is −log10 of the Kd, conventionally taken in molar units. Read a low pKd as a high Kd.

Sequence of mouse BK channel (mSlo) (Q08460 whole entry): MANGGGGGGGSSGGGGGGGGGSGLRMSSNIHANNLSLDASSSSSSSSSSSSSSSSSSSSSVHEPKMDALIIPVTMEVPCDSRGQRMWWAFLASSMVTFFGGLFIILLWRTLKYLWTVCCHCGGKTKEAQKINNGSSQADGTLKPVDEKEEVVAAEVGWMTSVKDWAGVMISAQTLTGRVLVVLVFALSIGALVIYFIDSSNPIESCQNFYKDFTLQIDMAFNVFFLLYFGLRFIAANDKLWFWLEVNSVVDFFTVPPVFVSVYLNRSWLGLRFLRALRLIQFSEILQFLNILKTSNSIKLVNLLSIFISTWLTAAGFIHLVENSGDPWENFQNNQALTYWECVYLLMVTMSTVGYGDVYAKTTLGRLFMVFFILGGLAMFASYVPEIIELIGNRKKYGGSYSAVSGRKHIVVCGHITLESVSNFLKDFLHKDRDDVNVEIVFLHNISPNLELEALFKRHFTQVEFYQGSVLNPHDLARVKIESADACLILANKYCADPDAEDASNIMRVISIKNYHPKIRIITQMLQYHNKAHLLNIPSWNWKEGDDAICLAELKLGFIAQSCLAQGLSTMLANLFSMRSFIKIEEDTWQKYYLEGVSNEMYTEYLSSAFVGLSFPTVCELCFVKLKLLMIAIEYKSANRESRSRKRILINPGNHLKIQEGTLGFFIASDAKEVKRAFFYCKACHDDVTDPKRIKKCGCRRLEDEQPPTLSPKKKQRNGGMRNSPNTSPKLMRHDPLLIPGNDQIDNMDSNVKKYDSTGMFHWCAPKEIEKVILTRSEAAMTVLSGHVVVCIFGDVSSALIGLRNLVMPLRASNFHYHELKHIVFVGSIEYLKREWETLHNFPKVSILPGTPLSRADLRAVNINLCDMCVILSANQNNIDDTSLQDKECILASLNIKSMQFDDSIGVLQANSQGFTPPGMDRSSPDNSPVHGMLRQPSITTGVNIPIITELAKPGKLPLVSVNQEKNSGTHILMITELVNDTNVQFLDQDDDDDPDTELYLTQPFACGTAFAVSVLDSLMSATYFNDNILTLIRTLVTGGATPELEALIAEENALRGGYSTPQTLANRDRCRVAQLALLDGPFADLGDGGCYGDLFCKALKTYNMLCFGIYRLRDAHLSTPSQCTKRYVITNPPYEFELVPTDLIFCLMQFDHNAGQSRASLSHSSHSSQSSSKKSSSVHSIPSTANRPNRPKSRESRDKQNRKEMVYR

Molecule `CCCC[N+](CCCC)(CCCC)CCCC` [TBA, tetrabutylammonium] had a pKd of 3.20.
